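Growth conditions: 96-well plates. Treatment: test compound, 48 hours, 5 concentrations. Analysis: linear interpolation between bracketing concentrations; unreached endpoints set to highest concentration. Abbreviation: GI50, concentration required for 50% inhibition of growth.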 Activity calls are given as the source filed them. Rule as the data show it: active = GI50 up to about 1.1 µM and inactive = higher.
Legend:
Assay in all cases: DTP human tumour cell line panel, 48 h
[1] = test system: A498
[2] = test system: A549
[3] = test system: CCRF-CEM
[4] = test system: DLD-1
[5] = test system: HCT-116
[6] = test system: IGROV-1
[7] = test system: M14
[8] = test system: NCI-H226
[9] = test system: NCI-H23
[10] = test system: NCI-H522
[11] = test system: OVCAR-4
[12] = test system: OVCAR-8
[13] = test system: SF-268
[14] = test system: SN12C
[15] = test system: SR
[16] = test system: KM12
[17] = test system: LOX IMVI
[18] = test system: OVCAR-5
[19] = test system: Hs-578T
[20] = test system: NCI/ADR-RES

Row | Compound | GI50 [1] | GI50 [2] | GI50 [3] | GI50 [4] | GI50 [5] | GI50 [6] | GI50 [7] | GI50 [8] | GI50 [9] | GI50 [10] | GI50 [11] | GI50 [12] | GI50 [13] | GI50 [14] | GI50 [15] | GI50 [16] | GI50 [17] | GI50 [18] | GI50 [19] | GI50 [20]
1 | CCOc1ccc(N2C(=O)C3c4[nH]c5ccccc5c4C4CCC(C(C)(C)C)CC4C3C2=O)cc1 (stereo unspecified) | > 100 µM (inactive) | 62.4 µM (inactive) | 10.3 µM (inactive) | 88.9 µM (inactive) | 49.2 µM (inactive) | > 100 µM (inactive) | > 100 µM (inactive) | 56.5 µM (inactive) | 82.8 µM (inactive) | 66.7 µM (inactive) | > 100 µM (inactive) | 97.1 µM (inactive) | > 100 µM (inactive) | 51.3 µM (inactive) | 42.8 µM (inactive) | – | – | – | – | –
2 | O=C1C[C@@H]2C(COC(=O)c3ccccc3)N(OCc3ccccc3)C[C@@H]2O1 (stereo partly specified) | > 100 µM (inactive) | > 100 µM (inactive) | > 100 µM (inactive) | > 100 µM (inactive) | > 100 µM (inactive) | > 100 µM (inactive) | > 100 µM (inactive) | > 100 µM (inactive) | > 100 µM (inactive) | > 100 µM (inactive) | > 100 µM (inactive) | > 100 µM (inactive) | > 100 µM (inactive) | > 100 µM (inactive) | > 100 µM (inactive) | > 100 µM (inactive) | > 100 µM (inactive) | > 100 µM (inactive) | – | –
3 | O=C(NC(=O)c1c(Cl)nc2sccn12)Nc1ccc(Cl)cc1 | 49.3 µM (inactive) | 81.3 µM (inactive) | > 100 µM (inactive) | > 48.3 µM (inactive) | 69.2 µM (inactive) | 49.4 µM (inactive) | 78.3 µM (inactive) | 45.2 µM (inactive) | 33.5 µM (inactive) | 61 µM (inactive) | 75.3 µM (inactive) | 52.6 µM (inactive) | 26.2 µM (inactive) | 86.5 µM (inactive) | > 100 µM (inactive) | > 93.5 µM (inactive) | 63.4 µM (inactive) | > 100 µM (inactive) | 8.81 µM (inactive) | > 70.3 µM (inactive)
4 | O=C(N/N=C1/C(=O)N(c2ccc(Cl)cc2Cl)C(=O)C(=O)C1c1nc2ccccc2o1)c1ccccc1O (stereo unspecified) | 31.3 µM (inactive) | 33 µM (inactive) | 47.6 µM (inactive) | 33 µM (inactive) | 37.2 µM (inactive) | 39.9 µM (inactive) | 28.3 µM (inactive) | > 100 µM (inactive) | 25.7 µM (inactive) | 30.8 µM (inactive) | – | 60.4 µM (inactive) | 41.2 µM (inactive) | 33.8 µM (inactive) | 47.2 µM (inactive) | 42.4 µM (inactive) | – | > 100 µM (inactive) | – | –
5 | CCC1(O)C(=O)OCc2c1cc1n(c2=O)Cc2cc3c(N)cccc3nc2-1 (stereo unspecified) [RS-9-Aminocamptothecin] | 0.156 µM (active) | 0.0354 µM (active) | < 0.01 µM (active) | 0.859 µM (active) | 0.0171 µM (active) | 0.327 µM (active) | 0.0174 µM (active) | < 0.01 µM (active) | < 0.0109 µM (active) | 0.0196 µM (active) | 0.345 µM (active) | 0.027 µM (active) | < 0.01 µM (active) | < 0.01 µM (active) | < 0.01 µM (active) | 0.24 µM (active) | < 0.01 µM (active) | 0.19 µM (active) | 3.65 µM (inactive) | 0.0118 µM (active)
6 | C=C1C(=O)OC2(C)C3CCC(C3)C12 (stereo unspecified) | – | > 100 µM (inactive) | 24.8 µM (inactive) | 51.1 µM (inactive) | 37.6 µM (inactive) | > 100 µM (inactive) | 27.7 µM (inactive) | > 100 µM (inactive) | 30.8 µM (inactive) | 21.7 µM (inactive) | 54.5 µM (inactive) | 36 µM (inactive) | 69.2 µM (inactive) | 57.8 µM (inactive) | 29.6 µM (inactive) | 43.4 µM (inactive) | 80.2 µM (inactive) | > 100 µM (inactive) | – | –
7 | O=C(CSC(=S)N1CCOCC1)Nc1nc2c(s1)CCCC2 | > 100 µM (inactive) | > 100 µM (inactive) | 45.8 µM (inactive) | > 100 µM (inactive) | > 100 µM (inactive) | > 100 µM (inactive) | > 100 µM (inactive) | > 100 µM (inactive) | 97.7 µM (inactive) | 27.8 µM (inactive) | > 100 µM (inactive) | > 100 µM (inactive) | > 100 µM (inactive) | > 100 µM (inactive) | 34.2 µM (inactive) | > 100 µM (inactive) | > 100 µM (inactive) | > 100 µM (inactive) | – | –
8 | NCCSCC(N)C(=O)O (stereo unspecified) | > 497 µM (inactive) | 47.6 µM (inactive) | 29 µM (inactive) | > 497 µM (inactive) | 39.7 µM (inactive) | > 87.5 µM (inactive) | > 497 µM (inactive) | > 497 µM (inactive) | > 497 µM (inactive) | > 63 µM (inactive) | > 497 µM (inactive) | > 497 µM (inactive) | > 497 µM (inactive) | > 497 µM (inactive) | > 497 µM (inactive) | 38 µM (inactive) | > 497 µM (inactive) | > 497 µM (inactive) | > 95.1 µM (inactive) | > 100 µM (inactive)
9 | O=S(=O)(O)SC/C=C\CSS(=O)(=O)O | > 100 µM (inactive) | > 100 µM (inactive) | – | > 100 µM (inactive) | > 100 µM (inactive) | > 100 µM (inactive) | > 100 µM (inactive) | > 100 µM (inactive) | > 100 µM (inactive) | > 100 µM (inactive) | > 100 µM (inactive) | > 100 µM (inactive) | > 100 µM (inactive) | > 100 µM (inactive) | > 100 µM (inactive) | > 100 µM (inactive) | 29.4 µM (inactive) | > 100 µM (inactive) | – | –

From ChEMBL document CHEMBL1201862, “PubChem BioAssay data set” (2004)
